Experiment: Stability of pure lycopene isomers in n-hexane during storage at room temperature
Assay type: physicochemical
Conditions: for concentration 5-Z / concentration 9-Z / concentration 13-Z / concentration all E / concentration x-Z: n-hexane; for transformation pathway during storage: storage in n-hexane
Protocol: Pure 5-Z, 9-Z, 13-Z and all-E lycopene were isolated from isomerised tomato oleoresin (submitted to 1 hour heating), by collecting the fractions containing the corresponding peaks after HPLC separation (see below the experimental conditions). Peaks were collected during two consecutive HPLC runs and the corresponding fractions were pooled.
Amount of total lycopene was determined by reverse phase HPLC on a C18 precolumn (ODS Hypersil, 5 μm, 20×4 mm; Hewlett Packard, Geneva, Switzerland) and a C18 column (Nova pak, 3.9 μm i.d.×300 mm length, Millipore, Volketswil, Switzerland). […] The mobile phase flow rate was 1.5 mL/min. Lycopene isomer profiles were determined by normal phase HPLC according to the method described by Schierle et al. (1997). Food. Chem. 59: 459. Samples of isomerized oleoresins were dissolved in n-hexane containing 50 ppm BHT and spun at maximum speed in an Eppendorf Lab centrifuge. The resulting supernatants were immediately analyzed by HPLC. The HPLC system used was a 1100 series Hewlett-Packard model equipped with an ultraviolet-visible photodiode array detector. Data were simultaneously acquired at 470 nm, 464 nm, 346 nm and 294 nm. Samples (10 μl) were separated using a combination of three Nucleosil 300-5 columns (4 mm internal diameter×250 mm length, Macherey-Nagel). […] Flow rate was 0.8 mL/min. Lycopene Z-isomers were identified according to literature data.
Amounts of lycopene isomers were calculated based on surface areas of the HPLC peaks using the same extinction coefficient as the all-E lycopene. Therefore, the lycopene concentration in products containing Z-isomers is slightly underestimated since it is recognized that the extinction coefficients of Z-isomers are lower than that of the all-E isomer. Conditions for Stability Tests
Stability of lycopene isomers was investigated both in n-hexane and in a tomato oleoresin isomerized by 4 hour heating in ethyl acetate. For this purpose, pure lycopene isomers were stored for 33 days in n-hexane at room temperature and in the absence of light, and the isomerized tomato oleoresin was kept for 55 days at room temperature in the absence of light. Total lycopene concentration and lycopene isomer profiles were measured at various time intervals during the storage.

[1] = room temperature, absence of light, 0 days
[2] = room temperature, absence of light, 1 day
[3] = room temperature, absence of light, 2 days
[4] = room temperature, absence of light, 5 days
[5] = room temperature, absence of light, 12 days
[6] = room temperature, absence of light, 33 days

| concentration 5-Z [1] | concentration all E [1] | concentration x-Z [1] | concentration 5-Z [2] | concentration all E [2] | concentration x-Z [2] | concentration 5-Z [3] | concentration all E [3] | concentration x-Z [3] | concentration 5-Z [4] | concentration all E [4] | concentration x-Z [4] | concentration 5-Z [5] | concentration 9-Z [5] | concentration 13-Z [5] | concentration all E [5] | concentration x-Z [5] | concentration 5-Z [6] | concentration 9-Z [6] | concentration 13-Z [6] | SMILES | also measured |
| --- | --- | --- | --- | --- | --- | --- | --- | --- | --- | --- | --- | --- | --- | --- | --- | --- | --- | --- | --- | --- | --- |
| 0 % of total isomers | 2.4 % of total isomers | 1.0 % of total isomers | 0 % of total isomers | 42.6 % of total isomers | 0 % of total isomers | 0 % of total isomers | 59.8 % of total isomers | 1.5 % of total isomers | 1.9 % of total isomers | 68.9 % of total isomers | 4.3 % of total isomers | 5.3 % of total isomers | 2.6 % of total isomers | 20.8 % of total isomers | 65.5 % of total isomers | 5.8 % of total isomers | 11.7 % of total isomers | 4.2 % of total isomers | 16.9 % of total isomers | CC(C)=CCC/C(C)=C/C=C/C(C)=C/C=C/C(C)=C\C=C\C=C(C)\C=C\C=C(C)\C=C\C=C(/C)CCC=C(C)C [13-Z lycopene] | fraction of the isomer transformed / converted into other isomers (after 33 day storage in n-hexane, room temperature, absence of light): more than 80%; stability compared with the 5-Z, 9-Z and all-E isomers (both stability tests (n-hexane and tomato oleoresin)): much less stable; concentration 9-Z [1]: 0 % of total isomers; concentration 13-Z [1]: 96.6 % of total isomers; concentration 9-Z [2]: 0.4 % of total isomers; concentration 13-Z [2]: 57.0 % of total isomers; concentration 9-Z [3]: 0 % of total isomers; concentration 13-Z [3]: 38.7 % of total isomers; concentration 9-Z [4]: 1.5 % of total isomers; concentration 13-Z [4]: 23.4 % of total isomers; concentration all E [6]: 57.0 % of total isomers; concentration x-Z [6]: 10.2 % of total isomers; transformation pathway during storage: mainly converted into the all-E isomer |
| 95.5 % of total isomers | 1.1 % of total isomers | 3.4 % of total isomers | 84.3 % of total isomers | 2.2 % of total isomers | 13.5 % of total isomers | 76.9 % of total isomers | 2.4 % of total isomers | 20.6 % of total isomers | 68.4 % of total isomers | 3.9 % of total isomers | 27.7 % of total isomers | 65.3 % of total isomers | 0.7 % of total isomers | 1.7 % of total isomers | 5.6 % of total isomers | 26.7 % of total isomers | 53.5 % of total isomers | 2.3 % of total isomers | 2.8 % of total isomers | CC(C)=CCC\C(C)=C/C=C/C(C)=C/C=C/C(C)=C/C=C/C=C(C)/C=C/C=C(C)/C=C/C=C(\C)CCC=C(C)C [5-Z lycopene] | concentration all E [6]: 10.7 % of total isomers; concentration x-Z [6]: 30.7 % of total isomers; transformation pathway during storage: principally transformed into other Z-isomers |
| 0.5 % of total isomers | 97.6 % of total isomers | 0.1 % of total isomers | 1.2 % of total isomers | 86.0 % of total isomers | 1.5 % of total isomers | 2.6 % of total isomers | 78.4 % of total isomers | 3.0 % of total isomers | 3.8 % of total isomers | 69.3 % of total isomers | 5.1 % of total isomers | 6.4 % of total isomers | 2.0 % of total isomers | 18.2 % of total isomers | 67.8 % of total isomers | 5.6 % of total isomers | 13.4 % of total isomers | 3.8 % of total isomers | 15.7 % of total isomers | CC(C)=CCC/C(C)=C/C=C/C(C)=C/C=C/C(C)=C/C=C/C=C(C)/C=C/C=C(C)/C=C/C=C(\C)CCC=C(C)C [all-E lycopene] | concentration 9-Z [1]: 0.5 % of total isomers; concentration 13-Z [1]: 1.4 % of total isomers; concentration 9-Z [2]: 1.2 % of total isomers; concentration 13-Z [2]: 10.1 % of total isomers; concentration 9-Z [3]: 1.1 % of total isomers; concentration 13-Z [3]: 15.0 % of total isomers; concentration 9-Z [4]: 2.2 % of total isomers; concentration 13-Z [4]: 19.6 % of total isomers; concentration all E [6]: 58.7 % of total isomers; concentration x-Z [6]: 8.4 % of total isomers |
| 1.8 % of total isomers | 4.4 % of total isomers | 0 % of total isomers | 2.1 % of total isomers | 5.8 % of total isomers | 2.8 % of total isomers | 11.6 % of total isomers | 6.0 % of total isomers | 5.9 % of total isomers | 1.5 % of total isomers | 5.6 % of total isomers | 8.6 % of total isomers | 2.3 % of total isomers | 66.5 % of total isomers | 8.2 % of total isomers | 7.0 % of total isomers | 15.9 % of total isomers | 4.1 % of total isomers | 56.0 % of total isomers | 10.5 % of total isomers | CC(C)=CCC/C(C)=C/C=C/C(C)=C\C=C\C(C)=C\C=C\C=C(C)\C=C\C=C(C)\C=C\C=C(/C)CCC=C(C)C [9-Z lycopene] | concentration 9-Z [1]: 93.3 % of total isomers; concentration 13-Z [1]: 0.6 % of total isomers; concentration 9-Z [2]: 87.1 % of total isomers; concentration 13-Z [2]: 2.3 % of total isomers; concentration 9-Z [3]: 83.5 % of total isomers; concentration 13-Z [3]: 3.1 % of total isomers; concentration 9-Z [4]: 79.2 % of total isomers; concentration 13-Z [4]: 5.2 % of total isomers; concentration all E [6]: 9.8 % of total isomers; concentration x-Z [6]: 19.7 % of total isomers; transformation pathway during storage: principally transformed into other Z-isomers |
